Measurements reported in patent US20230256092A1, “COMBINED USE OF ANTI-CCR8 ANTIBODY AND CHEMOTHERAPEUTIC AGENT” (Shionogi & Co., Ltd., priority 2020, published 2023).

Experiments:
Format in all cases: in vivo, mouse
[1] = system: bladder cancer-derived MB49 cells; test: Example 4: C57BL/6 mice inoculated with MB49 cells, carboplatin or cisplatin combination; conditions: antibody 50 μg iv days 4, 7; carboplatin 40 mg/kg or cisplatin 3 mg/kg iv day 4; single groups 7, 10, 14, 17, 18 days; carboplatin combination from 10 days, cisplatin combination from 14 days; Mann-Whitney U
Procedure: The back of each C57BL/6 mouse (6 weeks old, male) was intracutaneously inoculated with 2×10^5 bladder cancer-derived MB49 cells (50 μL).
To an anti-mouse CCR8 antibody single administration group, 50 μg (200 μL) of an anti-mouse CCR8 antibody (clone SA214G2, BioLegend, Inc.) was intravenously administered 4 and 7 days after tumor inoculation, and saline was intravenously administered at a volume of 10 mL/kg body weight 4 days after tumor inoculation (N=10).
To a carboplatin single administration group, 50 μg (200 uL) of an isotype control antibody (clone LTF-2, Bio X Cell, Inc.) was intravenously administered 4 and 7 days after tumor inoculation, and carboplatin (trade name: PARAPLATIN, Bristol-Myers Squibb Company) at 40 mg/kg body weight was intravenously administered at a volume of 10 mL/kg body weight 4 days after tumor inoculation (N=10). […]
Tumor volumes were measured every 1 to 4 days from 4 days after tumor inoculation. The tumor volume (mm^3) was measured in long diameter (mm)×short diameter (mm)×short diameter (mm)/2, and a significant difference test based on a Mann-Whitney U method (significance level: P<0.05) was conducted. […]

[2] = system: breast cancer-derived 4T1 cells; test: Example 1: Balb/c mice inoculated with 4T1 cells, carboplatin combination; conditions: antibody 50 μg iv days 5, 8; carboplatin 114 mg/kg iv day 5; single groups 8, 12, 15, 18, 22 days after inoculation, combined from 8 days; Mann-Whitney U
Procedure: (§1) The back of each Balb/c mouse (6 weeks old, female) was intracutaneously inoculated with 2×10^5 breast cancer-derived 4T1 cells (50 μL).
(§2) To an anti-mouse CCR8 antibody single administration group, 50 μg (200 μL) of an anti-mouse CCR8 antibody (clone SA214G2, BioLegend, Inc.) was intravenously administered 5 and 8 days after tumor inoculation, and saline was intravenously administered at a volume of 11.4 mL/kg body weight 5 days after tumor inoculation (N=10). To a carboplatin single administration group, 50 μg (200 μL) of an isotype control antibody (clone LTF-2, Bio X Cell, Inc.) was intravenously administered 5 and 8 days after tumor inoculation, and carboplatin (trade name: PARAPLATIN, Bristol-Myers Squibb Company) at 114 mg/kg body weight was intravenously administered at a volume of 11.4 mL/kg body weight 5 days after tumor inoculation (N=10). […] Tumor volumes were measured every 3 to 4 days from 5 days after tumor inoculation. The tumor volume (mm^3) was measured in long diameter (mm)×short diameter (mm)×short diameter (mm)/2, and a significant difference test based on a Mann-Whitney U method (significance level: P<0.05) was conducted.

[3] = system: lung cancer-derived ASB-XIV cells; test: Example 7: hCCR8-KI (KI/KI) mice inoculated with ASB-XIV cells, cisplatin combination; conditions: antibody 1 mg/kg iv and cisplatin 3 mg/kg iv day 5; 14, 17 and 19 days after tumor inoculation; Mann-Whitney U
Procedure: To an anti-human CCR8 antibody single administration group, an anti-human CCR8 antibody (humanized 10A11 antibody (light chain variable region: IGKV4-1 N53Q+G29R (SEQ ID NO: 59)/heavy chain variable region: IGHV3-15 T94R (SEQ ID NO: 41))) at 1 mg/10 mL/kg body weight and saline at 10 mL/kg body weight were intravenously administered 5 days after tumor inoculation (N=10). To a cisplatin single administration group, a control solution at 10 mL/kg body weight and cisplatin (trade name: RANDA, Nippon Kayaku Co., Ltd.) at 3 mg/10 mL/kg body weight were intravenously administered 5 days after tumor inoculation (N=10). To an anti-human CCR8 antibody and cisplatin combined administration group, an anti-human CCR8 antibody at 1 mg/10 mL/kg body weight and cisplatin at 3 mg/10 mL/kg body weight were intravenously administered 5 days after tumor inoculation (N=10). To a control group, a control solution at 10 mL/kg body weight and saline at 10 mL/kg body weight were intravenously administered 5 days after tumor inoculation (N=10). Tumor volumes were measured every 2 to 5 days from 5 days after tumor inoculation. The tumor volume (mm^3) was measured in long diameter (mm)×short diameter (mm)×short diameter (mm)/2, and a significant difference test based on a Mann-Whitney U method (significance level: P<0.05) was conducted.

[4] = system: breast cancer-derived 4T1 cells; test: Example 3: hCCR8-KI (KI/KI) mice inoculated with 4T1 cells, cisplatin combination; conditions: antibody 400 μg iv days 5, 8; cisplatin 8 mg/kg iv day 5; cisplatin single 8, 11, 13, 15, 18, 21, 25, 29 days, combined from 8 days; Mann-Whitney U
Procedure: To an anti-human CCR8 antibody single administration group, 400 μg (200 μL) of an anti-human CCR8 antibody (humanized 10A11 antibody (light chain variable region: IGKV4-1 N53Q+G29R (SEQ ID NO: 59)/heavy chain variable region: IGHV3-15 T94R (SEQ ID NO: 41))) was intravenously administered 5 and 8 days after tumor inoculation, and saline was intravenously administered at a volume of 16 mL/kg body weight 5 days after tumor inoculation (N=10). To a cisplatin single administration group, 200 μL of a control solution (obtained by diluting a buffer solution used for the antibody with saline in line with an antibody dilution ratio) was intravenously administered 5 and 8 days after tumor inoculation, and cisplatin (trade name: RANDA, Nippon Kayaku Co., Ltd.) at 8 mg/kg body weight was intravenously administered at a volume of 16 mL/kg body weight 5 days after tumor inoculation (N=10). […] Tumor volumes were measured every 2 to 4 days from 5 days after tumor inoculation. The tumor volume (mm^3) was measured in long diameter (mm)×short diameter (mm)×short diameter (mm)/2, and a significant difference test based on a Mann-Whitney U method (significance level: P<0.05) was conducted.

[5] = system: breast cancer-derived 4T1 cells; test: Example 2: Balb/c mice inoculated with 4T1 cells, gemcitabine combination; conditions: antibody 50 μg iv days 5, 8; gemcitabine 50 mg/kg iv day 5; gemcitabine single 8, 12, 15, 18, 22 days, combined from 8 days; Mann-Whitney U
Procedure: as §1
as §2, with “10” for “11.4”, “gemcitabine” for “carboplatin”, “GEMZAR, Eli Lilly Inc.)” for “PARAPLATIN, Bristol-Myers Squibb Company)”, “50” for “114”

[6] = system: lung cancer-derived ASB-XIV cells; test: Example 8: hCCR8-KI (KI/KI) mice inoculated with ASB-XIV cells, paclitaxel combination
Procedure: To an anti-human CCR8 antibody single administration group, an anti-human CCR8 antibody (humanized 10A11 antibody (light chain variable region: IGKV4-1 N53Q+G29R (SEQ ID NO: 59)/heavy chain variable region: IGHV3-15 T94R (SEQ ID NO: 41))) at 0.5 mg/10 mL/kg body weight and saline at 10 mL/kg body weight were intravenously administered 5 days after tumor inoculation (N=10). To a paclitaxel single administration group, saline at 10 mL/kg body weight and paclitaxel (trade name: TAXOL, Bristol-Myers Squibb Company) at 8 mg/10 mL/kg body weight were intravenously administered 5 days after tumor inoculation (N=10). To an anti-human CCR8 antibody and paclitaxel combined administration group, an anti-human CCR8 antibody at 0.5 mg/10 mL/kg body weight and paclitaxel at 8 mg/10 mL/kg body weight were intravenously administered 5 days after tumor inoculation (N=10). To a control group, saline was intravenously administered at 20 mL/kg 5 days after tumor inoculation (N=10). Tumor volumes were measured every 2 to 5 days from 5 days after tumor inoculation. The tumor volume (mm^3) was measured in long diameter (mm)×short diameter (mm)×short diameter (mm)/2, and a significant difference test based on a Student's T: one-sided test method (significance level: P<0.05) was conducted.

In the case of `N.N.O=C([O-])C1(C(=O)[O-])CCC1.[Pt+2]` [carboplatin], the “tumor volume as compared to the control group” value [1] is reported as “no significant difference” and the “tumor volume as compared to the control group” value [2] is reported as “no significant difference”.
With `N.N.[Cl][Pt][Cl]` [cisplatin, reference compound] the “tumor volume as compared to the control group” value [3] was “no significant decrease”, the “tumor volume as compared to the control group” value [4] was “significant decrease” and the “tumor volume as compared to the control group” value [1] was “no significant difference”.
For `Nc1ccn([C@@H]2O[C@H](CO)[C@@H](O)C2(F)F)c(=O)n1` [gemcitabine], the “tumor volume as compared to the control group” value [5] was “significant decrease”.
In the case of `CC(=O)O[C@H]1C(=O)[C@@]2(C)[C@H]([C@H](OC(=O)c3ccccc3)[C@]3(O)C[C@H](OC(=O)[C@H](O)[C@@H](NC(=O)c4ccccc4)c4ccccc4)C(C)=C1C3(C)C)[C@]1(OC(C)=O)CO[C@@H]1C[C@@H]2O` [paclitaxel], the “tumor volume as compared to the control group” value ([6]; antibody 0.5 mg/kg iv and paclitaxel 8 mg/kg iv day 5, antibody single 10, 12, 14, 18 days, paclitaxel single 10 and 12 days, combined from 10 days, Student's T one-sided) is reported as “significant decrease” and the “tumor volume as compared to the control group, later time points” value ([6]; paclitaxel 8 mg/kg iv day 5, 14 and 17 days after tumor inoculation) is reported as “the significant difference disappeared”.
